Source: patent publication EP3833345B1, “SMALL MOLECULE-INHIBITORS OF 6-PHOSPHOFRUCTO-1-KINASE FOR REDUCING LACTATE GENERATION BY CANCER CELLS” (Kemijski Institut, priority 2018, dated 2020)

Experiments:
Jurkat cells = test: lactate excretion by Jurkat cells (enzymatic L-lactic acid kit); type: cell-based, human; conditions: preliminary test, 100 µM inhibitor, followed for 48 hours, versus DMSO control
Method: The cells were incubated in 1 mL volume (24 well plates) at 5% CO2 and 37°C. The inhibitors were added in 100 µM concentration. As a control, equivalent amount of DMSO as used for the addition of inhibitors was supplemented to the medium. The tests started with 1×10^5 cells per mL. Extracellular lactate excreted by the Jurkat cells was measured in the supernatant of the growth medium after the cells were removed by centrifugation at 1500 rpm for 5 minutes. Lactate concentration was determined enzymatically using L-Lactatic acid kit (K-LATE, Megazyme, Ireland).
Measurements of lactate excretion in the tumorigenic Jurkat cells and the cells treated with two selected inhibitors at different concentrations were repeated by more detailed measurements. The growth conditions were identical to those described in Experiment 2. No significant difference in lactate excretion could be observed by the treated and untreated cells during the initial stage of growth that lasted for approximately 12 hours. Later on lactate excretion by the Jurkat cells ceased in the presence of both inhibitors.

[1] = biological target: T1, modified (47 kDa) 6-phosphofructo-1-kinase (PFK-M), sfPFK-M fragments (Homo sapiens, UniProt P08237); test: in vitro inhibition of purified recombinant modified (cancer-specific) PFK-M fragments; conditions: native and modified PFK-M not distinguished
T1 sequence (P08237 1-443 limits assumed): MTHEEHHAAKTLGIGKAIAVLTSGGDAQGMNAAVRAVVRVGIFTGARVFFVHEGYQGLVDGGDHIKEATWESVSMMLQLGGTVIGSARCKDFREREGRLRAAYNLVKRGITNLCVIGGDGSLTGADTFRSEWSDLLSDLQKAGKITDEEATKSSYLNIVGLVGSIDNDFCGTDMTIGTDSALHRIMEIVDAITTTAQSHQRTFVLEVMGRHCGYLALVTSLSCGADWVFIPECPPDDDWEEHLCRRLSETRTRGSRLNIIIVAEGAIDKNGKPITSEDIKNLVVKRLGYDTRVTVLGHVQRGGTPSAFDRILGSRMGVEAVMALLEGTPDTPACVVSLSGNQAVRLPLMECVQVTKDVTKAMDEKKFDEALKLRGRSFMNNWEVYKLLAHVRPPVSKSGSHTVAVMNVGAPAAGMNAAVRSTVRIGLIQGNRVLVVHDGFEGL
Method: Initially, all compounds were tested in vitro for inhibition of the purified human native enzyme (85 kDa) and modified cancer-specific shorter fragments (47 kDa) of muscle type PFK-M, followed by measurements of the purified native enzyme (85 kDa) and shorter fragments (70 kDa) of liver type PFK-L isoform.
Selected compounds were tested for in vitro inhibition of isolated recombinant human native and modified PFK-M enzymes.
The yeast transformant encoding the native human PFK-M enzyme was designated as nPFKM strain while transformant encoding cancer specific shorter fragments was designated as sfPFKM strain. […] For the enzymatic measurements, all the substrates (F6P and ATP), auxiliary enzymes, NADH and inhibitors dissolved in DMSO were added first to the buffer with PEG. After thorough mixing of the buffer with all ingredients, the enzymatic reaction started by the insertion of the purified recombinant enzymes.

COLO 829 cells [2] = test: lactate excretion by COLO 829 cells; type: cell-based; conditions: for lactate excretion by COLO 829 cells: single addition, different concentrations
Method: (§1) Preliminary in vivo tests were run by measuring lactate production by three different tumorigenic cell lines. Again, 100 µM concentrations of tested compounds have been added to the medium. For the experiment, the following tumorigenic cells lines originating from different tumours were tested: Caco-2 cells (Figure 10a), originating from colorectal adenoma carcinoma; COLO 829 cells (Figure 10b), isolated from melanoma; and MDA-MB-231 cells (Figure 10c) derived from metastatic phase of mammary/breast cancer. All adherent cell lines were grown in the RPMI 1640 GlutaMAX substrate (Thermo Fisher) supplemented with 10% FBS.
On the basis of preliminary results, inhibitors No. 23, 29, 30 and 31 were tested on COLO 829 cells. […] No significant discrepancies of total cell numbers in respect to the control were observed due to the different concentrations of inhibitors in the medium (Figure 13e). The average percent of dead COLO 829 cells in the control and in the presence of different concentrations of inhibitors were as follows: inh. 23 (9,23±0,6%), inh. 29 (9,31±0,73%), inh. 30 (8,27±0,49%), inh. 31 (8,26±0,38%). Additionally, cytotoxicity of inh. 3 (5,01±1,08%) and 9 (3,65±0,78%) for COLO 829 cells were also determined. No dose dependent decrease of survival was observed by any inhibitor.
(§2) A decrease in inhibitory effectiveness of some compounds was observed after certain period of time (Example 11). […] Therefore, the influence of selected inhibitors was assessed by sequential re-insertion of low concentrations of inhibitors at indicated time points. The inhibitors were first added to the medium 8 hours after the inoculation followed by periodically additions at 24-hour intervals (marked by arrows).
No significant cytostatic (Figure 16f) of cytotoxic effect of inhibitors could be detected after 92 hours of incubation despite of sequential addition of various concentrations of inhibitors. The following average percentages of dead cells were perceived in the medium without and media with inh. 3 (1,95±0,15%) inh. 9 (1,70±0,14%), inh. 23 (2,40±0,09%), inh. 29 (1,66±0,25%) and inh. 30 (1,38±0,18%). No detrimental effects of increased inhibitors concentrations on cell deaths have been observed.

MDA-MB-231 cells [3] = test: lactate excretion by MDA-MB-231 cells; type: cell-based; conditions: single addition; for lactate excretion by MDA-MB-231 cells: different concentrations
Method: as §1
Inhibitors No. 23, 29, 30 and 31 were tested for preventing lactate generation by the MDA-MB-231 cells. […] No significant discrepancies of total cell numbers were observed (Figure 14e) due to the different concentrations of inhibitors in the medium. […] The average percent of dead MDA-MB-231 cells in the control and in the presence of different concentrations of inhibitors were as follows: inh. 23 (2,98±0,2%), inh. 29 (3,37±0,39%), inh. 30 (3,4±0,21%), inh. 31 (6,87±0,44%). Additionally, cytotoxicity of inh. 3 (7,2±0,47%) and 9 (6,59±0,29%) for MDA-MB-231 cells were also determined. No dose dependent decrease of survival was observed by any inhibitor.
as §2
In MDA-MB-231 calls similar results to those found in Caco-2 cells were observed. […] No significant cytostatic (Figure 17f) or cytotoxic effect of inhibitors could be detected after 92 hours of incubation despite of sequential addition of various concentrations of inhibitors. The following average percentages of dead cells were perceived in the medium without and with inh. 3 (2,05±0,18%), inh. 9 (1,85±0,05%), inh. 23 (2,20±0,15%), inh. 29 (1,54±0,16%) and inh. 30 (2,00±0,18%). No detrimental effects of increased inhibitors concentrations on cell deaths have been observed.

COLO 829 cells [4] = test: cytotoxicity in COLO 829 cells (LDH kit); type: cell-based; conditions: for average percent of dead COLO 829 cells: single addition, average over control and different concentrations of inhibitor
Method: (§3) Lactate generation, growth yield and survival under normal and inhibitory conditions of three different tumorigenic cells lines were determined in more detailed measurements. […] Cytotoxicity was measured by the Lactate dehydrogenase (LDH) kit (Roche).

MDA-MB-231 cells [5] = test: cytotoxicity in MDA-MB-231 cells (LDH kit); type: cell-based; conditions: for average percent of dead MDA-MB-231 cells: single addition, average over control and different concentrations of inhibitor
Method: as §3
Inhibitors No. 23, 29, 30 and 31 were tested for preventing lactate generation by the MDA-MB-231 cells.

Caco-2 cells [6] = test: lactate excretion by Caco-2 cells; type: cell-based; conditions: single addition
Method: Preliminary in vivo tests were run by measuring lactate production by three different tumorigenic cell lines. […] For the experiment, the following tumorigenic cells lines originating from different tumours were tested: Caco-2 cells (Figure 10a), originating from colorectal adenoma carcinoma; COLO 829 cells (Figure 10b), isolated from melanoma; and MDA-MB-231 cells (Figure 10c) derived from metastatic phase of mammary/breast cancer.
as §3
Therefore, the influence of selected inhibitors was assessed by sequential re-insertion of low concentrations of inhibitors at indicated time points. The inhibitors were first added to the medium 8 hours after the inoculation followed by periodically additions at 24-hour intervals (marked by arrows).

Caco-2 cells [7] = test: cytotoxicity in Caco-2 cells (lactate dehydrogenase (LDH) kit); type: cell-based
Method: as §3

[8] = sequential addition at 24-hour intervals, 92 hours, average over medium without and with inhibitor

Structure (SMILES) | lactate excretion by the Jurkat cells (Jurkat cells) | in vitro PFK-M inhibition [1] | lactate excretion by COLO 829 cells (COLO 829 cells [2]) | lactate excretion by MDA-MB-231 cells (MDA-MB-231 cells [3]) | average percent of dead COLO 829 cells (COLO 829 cells [4]) | average percent of dead MDA-MB-231 cells (MDA-MB-231 cells [5]) | also measured
Cc1ccc(-c2cccc(-c3ccn(Cc4nnc(C)o4)n3)c2)nn1 [Inhibitor No. 14] | Less efficient reduction of lactate overflow | no in vitro PFK-M inhibition could be detected | – | – | – | – | –
CNC(=O)c1nc(CN2CCc3onc(-c4ccccc4F)c3C2)no1 [Inhibitor No. 13, 3-{[3-(2-fluorophenyl)-6,7-dihydroisoxazolo[4,5-c]pyridin-5(4H)-yl]methyl}-N-methyl-1,2,4-oxadiazole-5-carboxamide] | Less efficient reduction of lactate overflow | no in vitro PFK-M inhibition could be detected | – | – | – | – | –
CNC(=O)c1nc(CN2CCc3onc(-c4cccc(F)c4)c3C2)no1 [Inhibitor No. 11, 3-{[3-(3-fluorophenyl)-6,7-dihydroisoxazolo[4,5-c]pyridin-5(4H)-yl]methyl}-N-methyl-1,2,4-oxadiazole-5-carboxamide] | Less efficient reduction of lactate overflow | no in vitro PFK-M inhibition could be detected | – | – | – | – | –
O=C(Nc1nnc(-c2ccno2)o1)[C@H]1COc2ccccc2O1 [Inhibitor No. 31, (2R)-N-(5-isoxazol-5-yl-1,3,4-oxadiazol-2-yl)-2,3-dihydro-1,4-benzodioxine-2-carboxamide] | – | – | some inhibition | dose dependent inhibition of lactate excretion | 8,26±0,38% | 6,87±0,44% | –
Cc1nnc(COC(=O)c2ccc3noc(-c4ccccc4)c3c2)o1 [Inhibitor No. 8, (5-methyl-1 ,3,4-oxadiazol-2-yl)methyl 3-phenyl-2,1-benzoxazole-5-carboxylate] | Less efficient reduction of lactate overflow | no in vitro PFK-M inhibition could be detected | – | – | – | – | –
CS(=O)(=O)Nc1nnc(NC(=O)c2ccc3[nH]c4c(c3c2)CCCC4)s1 [Inhibitor No. 23, N-[5-(methanesulfonamido)-1,3,4-thiadiazol-2-yl]-6,7,8,9-tetrahydro-5H-carbazole-3-carboxamide] | – | – | Slightly weaker inhibition | strong inhibition | 9,23±0,6% | 2,98±0,2% | period of strong inhibition of lactate generation, Caco-2 (Caco-2 cells [6]; 20-80 µM, later the inhibitory effect was lost): 36 h; lactate generation by Caco-2 cells (Caco-2 cells [6]; different concentrations (20-80 µM)): strong inhibition of lactate generation; concentration at which comprehensive inhibition of lactate formation was detected, COLO 829 (COLO 829 cells [2]; sequential re-insertion at 24-hour intervals): ≥ 20 µM; period of strong inhibition of lactate generation, MDA-MB-231 (MDA-MB-231 cells [3]; later on lactate generation re-appeared): 42 h; average percentages of dead cells, Caco-2, sequential re-insertion (Caco-2 cells [7]; [8]): 4,05±0,54%; average percent of dead cells, Caco-2 (Caco-2 cells [7]; single addition, average over control and different concentrations of inhibitor): 3,35±0,08%; average percentages of dead cells, COLO 829, sequential re-insertion (COLO 829 cells [4]; [8]): 2,40±0,09%; average percentages of dead cells, MDA-MB-231, sequential re-insertion (MDA-MB-231 cells [5]; [8]): 2,20±0,15%
